For one series, the target named is Lat-1 (Rattus norvegicus, UniProt Q63016).
Series [1] in a line: Octanol/water partition and distribution coefficients. The settings on record: for Log Doct 7.4: octanol distribution coefficient, pH 7.4; for Log Poct: octanol partition coefficient.
The conditions of series [2]: rat.
For series [3] the following is noted: rat in vivo measurements; cited from earlier work.
The nature of series [4]: Neutral fraction at pH 7.4 calculated from pKa. The format is physicochemical. The settings on record: neutral fraction at perfusion fluid pH 7.40, calculated from pKa.
The conditions of series [5]: ref Hansch et al. [123], Avdeef [46] or other sources, cited from earlier work; for Log Poct: octanol partition coefficient.
The conditions of series [6]: rat in vivo measurements; cited from earlier work. The source holds these as a separate data set.
The conditions of series [7]: for Brain Kin: calculated at brain blood flow […] and rat serum fu; for Extraction (unbound) / Brain vascular extraction (total): calculated at brain blood flow […]; for Extraction (unbound): free drug; for Brain vascular extraction (total): with rat serum fu.
For series [8] the following is noted: rat, in vivo, pH 7.4.
The nature of series [9]: In situ rat brain perfusion (brain uptake Kin, extraction E, BBB PS).
The mark [10] stands for this setting: LAT1 substrates, tracer concentration.
Where [11] appears, read: LAT1 substrates, tracer concentration, perfusion 15-30 s.

Like-named read-outs stand apart in the source and are kept apart here.

Chain of Lat-1 (Q63016 whole entry): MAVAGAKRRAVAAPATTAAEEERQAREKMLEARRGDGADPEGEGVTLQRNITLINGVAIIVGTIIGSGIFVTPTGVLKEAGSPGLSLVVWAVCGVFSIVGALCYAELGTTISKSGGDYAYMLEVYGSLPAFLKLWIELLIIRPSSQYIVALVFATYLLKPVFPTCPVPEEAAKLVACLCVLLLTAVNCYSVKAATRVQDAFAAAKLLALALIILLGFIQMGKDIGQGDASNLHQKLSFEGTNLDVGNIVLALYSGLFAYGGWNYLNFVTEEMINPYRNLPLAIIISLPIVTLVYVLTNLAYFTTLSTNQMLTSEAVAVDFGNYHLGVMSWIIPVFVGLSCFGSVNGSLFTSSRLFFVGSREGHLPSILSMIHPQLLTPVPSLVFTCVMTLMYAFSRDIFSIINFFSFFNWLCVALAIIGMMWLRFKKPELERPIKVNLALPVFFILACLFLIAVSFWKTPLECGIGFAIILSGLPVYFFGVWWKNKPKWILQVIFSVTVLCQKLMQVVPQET
Chain of Lat-1 (Q794F9 whole entry partner): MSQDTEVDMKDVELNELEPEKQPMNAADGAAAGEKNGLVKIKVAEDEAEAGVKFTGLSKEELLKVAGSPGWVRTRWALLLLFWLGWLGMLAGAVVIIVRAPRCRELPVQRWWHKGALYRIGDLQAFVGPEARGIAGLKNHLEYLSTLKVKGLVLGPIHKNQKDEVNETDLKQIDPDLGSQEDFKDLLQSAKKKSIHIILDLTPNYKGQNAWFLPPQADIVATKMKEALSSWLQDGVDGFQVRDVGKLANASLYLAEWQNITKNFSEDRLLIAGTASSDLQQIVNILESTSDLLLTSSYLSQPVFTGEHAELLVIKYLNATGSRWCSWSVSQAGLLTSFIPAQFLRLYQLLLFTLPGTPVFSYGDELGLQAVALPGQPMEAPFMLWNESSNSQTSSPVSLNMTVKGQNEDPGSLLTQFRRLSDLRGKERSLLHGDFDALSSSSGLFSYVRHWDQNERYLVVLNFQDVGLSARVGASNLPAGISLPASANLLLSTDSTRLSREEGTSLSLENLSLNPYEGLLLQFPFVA

As for `N[C@H](C(=O)O)[C@@H]1CC(Cl)=NO1` [Acivicin], at Lat-1 (setting [10]), the LogPS is −3.32. In addition, the PS at Lat-1 (setting [11]) is 0.000479 mL/s/g. Also, in series [1], the “Log Doct 7.4” value was −2.63 and the “Log Poct” value is recorded as −0.31.
In the case of `CC(C)C[C@H](CN)CC(=O)O` [Pregabalin], on Lat-1 (rat, in vivo, pH 7.4), the LogPS is on record as −3.01 and the PS turned out to be 0.000976 mL/s/g. Moreover, in series [1], the “Log Doct 7.4” value is reported as −1.75 and the “Log Poct” value came to 1.12.
The compound `OC[C@H]1O[C@H](OC[C@H]2O[C@H](O[C@]3(CO)O[C@H](CO)[C@@H](O)[C@@H]3O)[C@H](O)[C@@H](O)[C@@H]2O)[C@H](O)[C@@H](O)[C@H]1O` [Raffinose] came in with a half-life in [2] (brain) of 405 min. In addition, the “fu,.p” value in series [3] was 1.00. Further, in series [4], the “fn (%)” value was 100%. Also, in [5], the “Log Poct” value is listed as −3.89 and the “Log Doct pH=7.4” value is listed as −3.89. Also, in [6], the “Brain Vu,br” value is on record as 0.03 mL/g. In addition, in [7], the “Brain Kin” value was 9.5e-07 mL/s/g, the “Extraction (unbound)” value is 3.96E-05% and the “Brain vascular extraction (total)” value is listed as 3.96E-05%. Also, in series [8], the “Log Pc” value is −8.02, the “Log PoS” value is −6.02, the Pc was 0.0095 ×10⁻⁶ cm/s and the PcS came out at 9.5e-07 mL/s/g. In addition, in series [8], the PoS is 9.5e-07 mL/s/g, the “Log Po” value is −8.02 and the Po came to 9.5e-09 cm/s.
Consider `N[C@@H](Cc1ccccc1)C(=O)O` [L-Phenylalanine], for which the LogPS at Lat-1 (setting [10]) is reported as −1.108. The compound also came in with a PS on Lat-1 (setting [11]) of 0.078 mL/s/g. In [1], the “Log Doct 7.4” value was −1.46 and the “Log Poct” value turned out to be 1.110.
As for `COC(=O)[C@H]1[C@H]2C[C@@H]3c4[nH]c5cc(OC)ccc5c4CCN3C[C@H]2C[C@@H](OC(=O)c2cc(OC)c(OC)c(OC)c2)[C@@H]1OC` [Reserpine], the half-life in series [2] (brain) amounted to 0.77 min. Also, in [3], the “fu,.p” value is listed as 0.10. The “fn (%)” value in [4] is recorded as 83.37%. In series [5], the “Log Poct” value is on record as 1.54 and the “Log Doct pH=7.4” value is 1.46. The “Brain Vu,br” value in series [6] is 5 mL/g. Further, in series [7], the “Brain Kin” value was 0.00749 mL/s/g, the “Extraction (unbound)” value is given as 97.6% and the “Brain vascular extraction (total)” value is 31.2%. Further, in [8], the “Log Pc” value is reported as −3.05, the “Log PoS” value was −0.97, the Pc came to 898 ×10⁻⁶ cm/s and the PcS was determined as 0.09 mL/s/g. In series [8], the PoS was 0.11 mL/s/g, the “Log Po” value was −2.97 and the Po came out at 0.00108 cm/s.
`CC(C(=O)O)c1ccc(-c2ccccc2)c(F)c1` (stereo not shown) [Flurbiprofen] had a half-life in series [2] (brain) of 3.9 min. Also, in series [3], the “fu,.p” value is reported as 6.3E−03. Also, in [4], the “fn (%)” value is reported as 0.06%. In series [5], the “Log Poct” value is listed as 3.99 and the “Log Doct pH=7.4” value was 0.91. In series [6], the “Brain Vu,br” value was 7.76 mL/g. Further, in series [7], the “Brain Kin” value is 0.000144 mL/s/g, the “Extraction (unbound)” value is reported as 61.6% and the “Brain vascular extraction (total)” value was 0.60%. For the same compound, in [8], the “Log Pc” value is listed as −3.64, the “Log PoS” value was found to be 1.58, the Pc came out at 230 ×10⁻⁶ cm/s and the PcS came to 0.023 mL/s/g. Further, in series [8], the PoS was 38.2 mL/s/g, the “Log Po” value is recorded as −0.42 and the Po came out at 0.38 cm/s.
In series [2] (brain), `Cc1c(I)c(=O)n(-c2ccccc2)n1C` [Iodoantipyrine] gave a half-life of 0.5 min. In series [3], the “fu,.p” value is listed as 0.50. Also, the “fn (%)” value in series [4] is reported as 100%. Further, in series [5], the “Log Poct” value is 1.27 and the “Log Doct pH=7.4” value is on record as 1.27. Besides, the “Brain Vu,br” value in series [6] was 2 mL/g. In series [7], the “Brain Kin” value was 0.0231 mL/s/g, the “Extraction (unbound)” value was 99.8% and the “Brain vascular extraction (total)” value was 96.1%. Also, in series [7] (protein-free physiologic saline pH 7.4), the “Peak flow rate for 90% E” value stood at 4.1 mL/min/g. Also, the “Maximal flow—90% extraction, PcS/2.3” value in series [7] (protein-free saline, pH 7.4) came to 0.068 mL/s/g. In series [8], the “BBB PcS” value worked out at 0.156 mL/s/g, the “Log Pc” value was −2.81, the “Log PoS” value was −0.81 and the Pc was 1560 ×10⁻⁶ cm/s. For the same compound, in series [8], the PcS is 0.16 mL/s/g, the “Percentage printed beside the uptake curves (measure not given)” value is 79%, the PoS is 0.16 mL/s/g and the “Log Po” value is −2.81. In [8], this compound registered a Po of 0.00156 cm/s.
In turn, `COc1ccc2c(c1)c(CC(=O)O)c(C)n2C(=O)c1ccc(Cl)cc1` [Indomethacin] showed a half-life in series [2] (brain) of 19.6 min. Further, the “fu,.p” value in series [3] is 5.7E−03. Besides, in [4], the “fn (%)” value is reported as 0.05%. In series [5], the “Log Poct” value is 3.51 and the “Log Doct pH=7.4” value is 0.68. The “Brain Vu,br” value in [6] is listed as 13.0 mL/g. For the same compound, in [7], the “Brain Kin” value is 4.37e-05 mL/s/g, the “Extraction (unbound)” value is 27.3% and the “Brain vascular extraction (total)” value was 0.18%. Besides, in [8], the “Log Pc” value is listed as −4.12, the Pc came out at 76.6 ×10⁻⁶ cm/s, the PcS turned out to be 0.0077 mL/s/g and the “Log Po” value is reported as −0.84. In [8], this compound gave a Po of 0.15 cm/s.
In the case of `OCC(O)CO` [Glycerol], the half-life in series [2] (brain) is 145 min. The “fu,.p” value in series [3] is given as 1.00. Besides, the “fn (%)” value in series [4] is 100%. In series [5], the “Log Poct” value is −1.76 and the “Log Doct pH=7.4” value is −1.76. The “Brain Vu,br” value in series [6] is reported as 1.04 mL/g. For the same compound, in series [7], the “Brain Kin” value is 1.7e-06 mL/s/g, the “Extraction (unbound)” value is listed as 0.34% and the “Brain vascular extraction (total)” value is on record as 0.34%. In series [8], the “Log Pc” value was −6.08, the “Log PoS” value was −4.08, the Pc came out at 0.829 ×10⁻⁶ cm/s and the PcS is 8.3e-05 mL/s/g. In series [8], the PoS is 8.29e-05 mL/s/g, the “Log Po” value is −6.08 and the Po came out at 8.29e-07 cm/s.
Regarding `Nc1ncnc2nc[nH]c12` [Adenine], the “Log Doct 7.4” value in [1] was −2.12.
For the compound `O=C(CO)[C@@H](O)[C@H](O)[C@H](O)CO` [Fructose], the “Log Pc” value in [9] (Pc in cm/s) is −7.24. For the same compound, the “Log Po” value in [9] (Po in cm/s) is recorded as −7.24. The “Log PoS” value in series [9] (PoS in mL/s/g) is −5.24. In series [9] (S assumed 100 cm^2/g), this compound gave a Pc of 0.0574 ×10⁻⁶ cm/s and a Po of 0.0574 ×10⁻⁶ cm/s. Besides, in series [9] (brain vascular intrinsic PoS), the PoS was determined as 5.74e-06 mL/s/g. In [9] (cerebral cortex, flow 0.1–[…], S = physiological saline, AB = artificial blood), this compound registered a PcS of 5.74e-06 mL/s/g. This compound registered a PoS in series [9] (intrinsic PS of neutral solute, PoS = PcS/fn, flow 0.1–[…]) of 5.74e-06 mL/s/g. Also, the half-life in series [2] worked out at 168 min. The “fu,.p” value in [3] was 1.00. In addition, in series [4], the “fn (%)” value is listed as 100%. In series [5], the “Log Poct” value is −3.20 and the “Log Doct pH=7.4” value is recorded as −3.20. For the same compound, the “Brain Vu,br” value in series [6] was 0.08 mL/g. For the same compound, in series [7], the “Brain Kin” value is 5.74e-06 mL/s/g, the “Extraction (unbound)” value is 2.39E-04% and the “Brain vascular extraction (total)” value is reported as 2.39E-04%.
`CCCC(CCC)C(=O)O` [Valproic acid] had a half-life in series [2] (brain) of 1.86 min. Also, the “fu,.p” value in series [3] is reported as 0.18. In addition, the “fn (%)” value in series [4] is 0.16%. For the same compound, in series [5], the “Log Poct” value is recorded as 2.71 and the “Log Doct pH=7.4” value was 0.21. Further, in series [6], the “Brain Vu,br” value is given as 1.43 mL/g. In addition, in series [7], the “Brain Kin” value is 0.0016 mL/s/g, the “Extraction (unbound)” value was 31.8% and the “Brain vascular extraction (total)” value was 6.7%. In series [8], the “Log Pc” value was −4.04, the “Log PoS” value was 0.46, the Pc turned out to be 91.9 ×10⁻⁶ cm/s and the PcS is 0.0092 mL/s/g. Further, in [8], the PoS worked out at 2.92 mL/s/g, the “Log Po” value is given as −1.54 and the Po came out at 0.0292 cm/s.
In turn, `Fc1ccc([C@@H]2CCNC[C@H]2COc2ccc3c(c2)OCO3)cc1` [Paroxetine] yielded a half-life in series [2] (brain) of 83 min. For the same compound, the “fu,.p” value in series [3] is 0.015. For the same compound, in series [4], the “fn (%)” value is 0.32%. Moreover, in [5], the “Log Poct” value is listed as 3.50 and the “Log Doct pH=7.4” value was 1.00. The “Brain Vu,br” value in series [6] is recorded as 852.0 mL/g. Besides, in series [7], the “Brain Kin” value was 0.00164 mL/s/g, the “Extraction (unbound)” value is 99.4% and the “Brain vascular extraction (total)” value was 7.4%. In addition, in series [8], the “BBB PcS” value worked out at 0.12 ± 0.02 mL/s/g, the “Log Pc” value is listed as −2.91, the “Log PoS” value turned out to be 1.59 and the Pc was 1230 ×10⁻⁶ cm/s. Also, in series [8], the PcS turned out to be 0.12 mL/s/g, the PoS was 39.0 mL/s/g, the “Log Po” value is −0.41 and the Po is recorded as 0.39 cm/s.
Consider `Nc1ccn([C@@H]2O[C@H](CO)[C@@H](O)C2(F)F)c(=O)n1` [Gemcitabine], for which, in [1], the “Log Doct 7.4” value is reported as −1.36 and the “Log Poct” value is reported as −0.470.
The like results for `N[C@@H](Cc1ccc(N(CCCl)CCCl)cc1)C(=O)O` [Melphalan (para)] were, in that order, −1.03 and 1.79.
`Nc1ncnc2c1ncn2[C@@H]1O[C@H](CO)[C@@H](O)[C@H]1O` [Adenosine]: the “Log Doct 7.4” value in series [1] is listed as −1.02.

Values taken from PMC11650849, “Brain endothelial permeability, transport, and flow assessed over 10 orders of magnitude using the in situ brain perfusion technique” (Fluids and Barriers of the CNS, 2024).
